Reference: patent US10525115B2 (Immatics Biotechnologies GmbH, priority 2014, dated 2020)

Legend:
[1] = system: MHC class I; assay: MHC class I binding assay (UV-exchange, β2m ELISA); set-up: species or system human; settings: yield of UV-exchange reaction
Procedure: Candidate peptides for T cell based therapies according to the present invention were further tested for their MHC binding capacity (affinity). The individual peptide-MHC complexes were produced by exchange with the peptide of interest as analyzed. Only peptide candidates that can effectively bind and stabilize the peptide-receptive MHC molecules prevent dissociation of the MHC complexes. To determine the yield of the exchange reaction, an ELISA was performed based on the detection of the light chain (β2m) of stabilized MHC complexes. The assay was performed as generally described in Rodenko et al. (Rodenko, B. et al., Nat Protoc. 1 (2006): 1120-1132).
96 well MAXISorp plates (NUNC) were coated over night with 2 ug/ml streptavidin in PBS at room temperature, washed 4× and blocked for 1 h at 37° C. in 2% BSA containing blocking buffer. Refolded HLA-A*0201/MLA-001 monomers served as standards, covering the range of 15-500 ng/ml. Peptide-MHC monomers of the UV-exchange reaction were diluted 100 fold in blocking buffer. Samples were incubated for 1 h at 37° C., washed four times, incubated with 2 μg/ml HRP conjugated anti-β2m for 1 h at 37° C., washed again and detected with TMB solution that is stopped with […]. Absorption was measured at 450 nm. Candidate peptides that show a high exchange yield (preferably higher than 50%, most preferred higher than 75%) are generally preferred for a generation and production of antibodies or fragments thereof, and/or T cell receptors or fragments thereof, as they show sufficient avidity to the MHC molecules and prevent dissociation of the MHC complexes.
MHC class I binding scores for the peptides as tested were; <20%=+; 20%-49%=++; 50%−75%=+++; >=75%=++++

[2] = target: HLA-DR2 (Homo sapiens, UniProt P01903+P01911); assay: REVEAL MHC-peptide binding assay; settings: for binding / complex formation: HLA-DR2
Procedure: (§1) The promiscuous binding of GALNT7-001 and ERGIC1-001 to various HLA-DR haplotypes and the stability of the formed complexes was assessed in an in vitro binding assay.
(§2) The seven investigated HLA-DR haplotypes are selected according to their frequencies in HLA-A*02- and HLA-A*24-positive North American populations. Data are derived from the analysis of 1.35 million HLA-typed volunteers registered in the National Marrow Donor Program (Mori M, Beatty P G, Graves M, Boucher K M, Milford E L (1997). HLA gene and haplotype frequencies in the North American population: the National Marrow Donor Program Donor Registry. Transplantation 64, 1017-1027). The analyzed population was subdivided in the following ethnic groups: Caucasian Americans (N=997,193), African Americans (N=110,057), Asian Americans (N=81,139), Latin Americans (N=100,128), and Native Americans (N=19,203).
(§3) The MHC-peptide binding assay as used determined the ability of each candidate peptide to bind to the selected HLA class II haplotype and stabilize the HLA-peptide complex. For this, the candidate peptides are assembled in vitro with a particular HLA class II protein.
(§4) The binding capacity of a candidate peptide to a particular HLA molecule is compared to a reference peptide with known very strong binding properties (positive control) for each HLA haplotype. Experimental standard errors derive from binding experiments of triplicated positive controls.
(§5) Besides the affinity of a peptide to a particular HLA molecule, the enduring stability of the formed HLA-peptide complex is crucial for the occurrence of an immune response. For this reason the presence of the formed HLA-peptide complex is measured after its incubation for 24 h at 37° C. The stability of the formed MHC-peptide complex is calculated as a ratio of the binding scores at 24 h and the binding scores which are received right after the refolding (accordingly at time 0) in percent.

[3] = system: HLA-DR haplotypes; assay: REVEAL MHC-peptide binding assay, panel of seven HLA-DR haplotypes; set-up: species or system human; settings: for number of formed HLA-peptide complexes stable for at least 24 h: of 5 formed complexes, 37° C.; for number of HLA-DR haplotypes with considerable binding capacity / number of HLA-DR haplotypes with which a complex was formed: of 7 investigated HLA-DR haplotypes
Procedure: as §1, §2, §3, §4, §5

[4] = system: HLA-DR5; assay: REVEAL MHC-peptide binding assay; set-up: species or system human; settings: for binding / complex formation: HLA-DR5; for stability of the formed HLA-peptide complex: HLA-DR5, after 24 h at 37° C.
Procedure: as §1, §2, §3, §4, §5

[5] = system: HLA-DR7; assay: REVEAL MHC-peptide binding assay; set-up: species or system human; settings: for binding / complex formation: HLA-DR7; for stability of the formed HLA-peptide complex: HLA-DR7, after 24 h at 37° C.
Procedure: as §1, §2, §3, §4, §5

[6] = system: HLA-DR4; assay: REVEAL MHC-peptide binding assay; set-up: species or system human; settings: for binding / complex formation: HLA-DR4; for stability of the formed HLA-peptide complex: HLA-DR4, after 24 h at 37° C.; for binding score: HLA-DR4, compared to the positive control, over 15% = strong binding
Procedure: as §1, §2, §3, §4, §5

[7] = system: HLA-DR6; assay: REVEAL MHC-peptide binding assay; set-up: species or system human
Procedure: as §1, §2, §3, §4, §5

[8] = system: HLA-DR1; assay: REVEAL MHC-peptide binding assay; set-up: species or system human; settings: for binding / complex formation: HLA-DR1; for stability of the formed HLA-peptide complex: HLA-DR1, after 24 h at 37° C.
Procedure: as §1, §2, §3, §4, §5

[9] = system: HLA-DR3; assay: REVEAL MHC-peptide binding assay; set-up: species or system human
Procedure: as §1, §2, §3, §4, §5

[10] = system: AML patient PBMC; assay: 12-day recall IFN-γ ELISPOT assay, HLA class II LiTAPs, AML patient PBMC; assay type: cell-based, human; settings: HLA class II peptide
Procedure: (§6) PBMC from AML patients and healthy volunteers were cultured in RPMI1640 medium (Gibco) supplemented with 10% pooled human serum (PHS, produced in-house), […] β-mercaptoethanol (Roth, Karlsruhe, Germany) and 1% penicillin/streptomycin (GE). For CD8^+ T cell stimulation, PBMC were thawed and pulsed with 1 μg/ml per peptide. Peptide-pulsed PBMC (5-6×10^6 cells/ml) were cultured at 37° C. and 5% CO2 for 12 days. On day 0 and day 1, 5 ng/ml IL-4 (R&D Systems, Minneapolis, Minn., USA) and 5 ng/ml IL-7 (Promokine, Heidelberg, Germany) were added to the culture medium. On days 3, 5, 7 and 9, 2 ng/ml IL-2 (R&D Systems) were added to the culture medium. Peptide-stimulated PBMC were functionally characterized by ELISPOT assays on day 12 and by intracellular cytokine staining on day 13 respectively. For CD4^+ T-cell stimulation, culture was performed as described for CD8^+ T cells with 2 modifications: pulsing was carried out with 10 μg/ml of HLA class II peptide and no IL-4 and IL-7 was added.
(§7) IFN-γ ELISPOT assays were carried out as described previously (Widenmeyer M, Griesemann H, Stevanovic S, Feyerabend S, Klein R, Attig S, et al. Promiscuous survivin peptide induces robust CD4+ T-cell responses in the majority of vaccinated cancer patients. Int J Cancer. 2012 Jul. 1; 131(1):140-9). In brief, 96-well nitrocellulose plates (Millipore) were coated with 1 mg/ml IFN-γ mAb (Mabtech, Cincinnati, Ohio, USA) and incubated over night at 4° C. Plates were blocked with 10% PHS for 2 h at 37° C. 5×10^5 cells/well of pre-stimulated PBMC were pulsed with 1 μg/ml (HLA class I) or 2.5 μg/ml (HLA class II) peptide and incubated for 24-26 h. Readout was performed according to manufacturer's instructions. Spots were counted using an ImmunoSpot S5 analyzer (CTL, Shaker Heights, Ohio, USA). T cell responses were considered to be positive when >15 spots/well were counted and the mean spot count per well was at least 3-fold higher than the mean number of spots in the negative control wells (according to the cancer immunoguiding program (CIP) guidelines).

[11] = system: healthy donor PBMC; assay: Cross-checking IFN-γ ELISPOT assay, HLA class II LiTAPs, healthy donor PBMC; assay type: cell-based, human; settings: HLA class II peptide
Procedure: as §6, §7

HLA-DR2, sequence (P01903 26-216 limits assumed): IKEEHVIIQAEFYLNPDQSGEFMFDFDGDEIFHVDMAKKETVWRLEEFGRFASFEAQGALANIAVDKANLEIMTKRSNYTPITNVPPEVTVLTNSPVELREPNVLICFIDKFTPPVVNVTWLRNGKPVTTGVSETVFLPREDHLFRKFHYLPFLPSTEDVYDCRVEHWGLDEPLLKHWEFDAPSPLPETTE
HLA-DR2, sequence (P01911 30-227 limits assumed): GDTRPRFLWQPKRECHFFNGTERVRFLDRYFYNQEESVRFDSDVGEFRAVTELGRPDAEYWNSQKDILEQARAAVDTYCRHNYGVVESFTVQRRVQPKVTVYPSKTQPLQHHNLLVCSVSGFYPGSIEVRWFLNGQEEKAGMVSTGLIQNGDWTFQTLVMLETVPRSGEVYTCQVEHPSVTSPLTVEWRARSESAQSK

36 (SLLYKVPYV; listed as Homo sapiens) [compound 36]
Peptide exchange (MHC class I binding score) [1]: ++++ (>=75%=++++)

54 (AVIEAEKIAQV; listed as Homo sapiens) [compound 54]
Peptide exchange (MHC class I binding score) [1]: ++++ (>=75%=++++)

251 (VLGGKAFLEHL; listed as Homo sapiens) [compound 251]
Peptide exchange (MHC class I binding score) [1]: ++++ (>=75%=++++)

266 (KLQEQLAQL; listed as Homo sapiens) [compound 266]
Peptide exchange (MHC class I binding score) [1]: ++++ (>=75%=++++)

FEGQFSINKVPGNFHVS (listed as Homo sapiens) [SEQ ID NO 604]
binding / complex formation [2]: form a complex | number of formed HLA-peptide complexes stable for at least 24 h [3]: 4 | number of HLA-DR haplotypes with considerable binding capacity [3]: at least 2 | number of HLA-DR haplotypes with which a complex was formed [3]: 5 | binding / complex formation [4]: form a complex | stability of the formed HLA-peptide complex [4]: stable | binding score ([4]; HLA-DR5, compared to the positive control, over 15% = strong binding): ≥ 15% | binding / complex formation [5]: form a complex | stability of the formed HLA-peptide complex [5]: stable | binding / complex formation [6]: form a complex | stability of the formed HLA-peptide complex [6]: stable | binding score [6]: ≥ 15% | binding / complex formation [7]: did not bind | binding / complex formation [8]: form a complex | stability of the formed HLA-peptide complex [8]: stable | binding / complex formation [9]: did not bind

GNQLFRINEANQLMQ (listed as Homo sapiens) [SEQ ID NO 597]
binding / complex formation [2]: form a complex | binding score ([2]; HLA-DR2, compared to the positive control, over 15% = strong binding): over 15% | number of formed HLA-peptide complexes stable for at least 24 h [3]: 4 | number of HLA-DR haplotypes with considerable binding capacity [3]: at least 4 | number of HLA-DR haplotypes with which a complex was formed [3]: 5 | binding / complex formation [4]: form a complex | stability of the formed HLA-peptide complex [4]: stable | binding / complex formation [5]: form a complex | stability of the formed HLA-peptide complex [5]: stable | binding score ([5]; HLA-DR7, compared to the positive control, over 15% = strong binding): over 15% | binding / complex formation [6]: form a complex | stability of the formed HLA-peptide complex [6]: stable | binding score [6]: over 15% | binding / complex formation [7]: did not bind | binding / complex formation [8]: form a complex | stability of the formed HLA-peptide complex [8]: stable | binding score ([8]; HLA-DR1, compared to the positive control, over 15% = strong binding): over 15% | binding / complex formation [9]: did not bind

HRSFVDLSGHNLANPHP (listed as Homo sapiens) [SEQ ID NO 478]
T cell responses (IFN-γ ELISPOT), share of AML patients [10]: 26.7% | T cell responses (IFN-γ ELISPOT) in AML patients (positive/tested) ([10]; listed as PII1): significant increase in IFN-γ production | T cell responses (IFN-γ ELISPOT) in AML patients (positive/tested) ([10]; listed as P^II1): 4/15 | IFN-γ secretion in ELISPOT, healthy donor PBMC (positive/tested) [11]: 0/8

SPNIVIALSGNKADLA (listed as Homo sapiens) [SEQ ID NO 558]
T cell responses (IFN-γ ELISPOT), share of AML patients [10]: 20.0% | T cell responses (IFN-γ ELISPOT) in AML patients (positive/tested) ([10]; listed as P[[I]]II2): significant increase in IFN-γ production | T cell responses (IFN-γ ELISPOT) in AML patients (positive/tested) ([10]; listed as P^II2): 3/15 | IFN-γ secretion in ELISPOT, healthy donor PBMC (positive/tested) [11]: 0/8

TEGQFVDLTGNRLTYT (listed as Homo sapiens) [SEQ ID NO 544]
T cell responses (IFN-γ ELISPOT), share of AML patients [10]: 13.3% | T cell responses (IFN-γ ELISPOT) in AML patients (positive/tested) ([10]; listed as P[[I]]II3): significant increase in IFN-γ production | T cell responses (IFN-γ ELISPOT) in AML patients (positive/tested) ([10]; listed as P^II3): 2/15 | IFN-γ secretion in ELISPOT, healthy donor PBMC (positive/tested) [11]: 0/8
